Experimental data as given in patent publication US20260256728A1, “TREATMENT FOR ASYMPTOMATIC STARGARDT DISEASE PATIENTS” (priority 2024, published 2026).
“Also recorded” adds a separate entry of the source.

How the values were obtained:
Assay type in all cases: in vivo, human
[1] = system: atrophic retinal lesions in Stargardt disease patients; assay: TEASE-1 growth rate of atrophic retinal lesions by fundus autofluorescence imaging; parameters: relative slower growth rate of atrophic retinal lesions versus control / Percentage Slowing of Atrophic Retinal Lesion Growth Rate: concentration or dose not given beside the values
Procedure: The Tolerability and Effects of gildeuretinol acetate in Stargardt Disease (Clinical trial group 1, also known as TEASE-1) was a 24-month, multicenter, double-masked, placebo-controlled trial designed to evaluate the efficacy and safety of daily oral gildeuretinol acetate in slowing the growth of atrophic retinal lesions in Stargardt disease patients. The trial was conducted at multiple sites in the United States (NCT02402660).
Patients 12 years or older, clinically diagnosed with Stargardt disease, with at least one ABCA4 mutation, at least one eye presenting with well-demarcated areas of reduced fundus autofluorescence including retinal atrophic lesions, and with any visual acuity, were enrolled.
Patients were randomized to gildeuretinol acetate 14 mg capsules, gildeuretinol acetate 24 mg capsules, or placebo capsules, to be taken once daily for one year. After one year, 50% of randomly selected patients receiving placebo were crossed over in a 1:1 ratio to gildeuretinol acetate 14 mg capsules or gildeuretinol acetate 24 mg capsules for a second year.
Deidentified retinal images of patients not enrolled in the trial were included as a natural history cohort. This natural history cohort comprised patients diagnosed with Stargardt disease of any age, with two or more longitudinal fundus autofluorescence images taken at least four months apart over a maximum period of 2.5 years.
[…] retinal imaging comparing gildeuretinol acetate versus the untreated arm ([…]). Only well-delineated and homogeneous retinal atrophic lesions ≥0.2 mm^2 with a summed area ≥0.5 mm^2 were included in the primary analysis.
The primary endpoint analysis used a linear mixed-effect model (LMEM) with repeated measures, conferring a higher power to detect smaller effects. All observed data, including both eyes, were utilized. Treatment duration was computed as a continuous measure for each visit based on years since randomization. Adjustments for baseline retinal atrophy used the baseline atrophic retinal lesion size as a fixed effect in the LMEM. Additional fixed effects included treatment arm, treatment duration, and interaction between the treatment arm and treatment duration. Random effects included patient, eye, grader to adjust for correlation between eyes within a patient, graders' assessment of an eye, and observations of the same eye over time. A random effect slope term was added to the effect of treatment duration. Patients who crossed over to gildeuretinol acetate after year one were included in the untreated arm from baseline to year one, then in the gildeuretinol acetate arm from […] upon crossing over to gildeuretinol acetate. The full analysis set (FAS) comprised all randomized patients who received at least one dose of the study drug.
[…] All available data between 0 and 24 months was used to compute the slope of each segment. The primary efficacy endpoint was the slope of the second segment. No constraints were imposed on the Y-intercept. All growth rates were calculated on a per-year basis.
No imputations were made for missing data because the LMEM yields valid inferences under the assumption of a missing-at-random mechanism. The two-sided P-value of the primary efficacy endpoint was calculated using Kenward-Roger's method for handling denominator degrees of freedom and small samples. The goodness of fit of the linear mixed-effect model was provided as R-squared (R^2). Analyses were conducted in R (R Core Team, 2020). Prespecified, unadjusted sensitivity analyses of the primary efficacy endpoint included growth rates of untransformed areas of retinal atrophy and growth rates using a single-slope from baseline until the last available visit. Post-hoc unadjusted analyses were performed to evaluate the potential contribution of patient characteristics.

[2] = system: asymptomatic Stargardt disease patients; assay: TEASE-3 best-corrected visual acuity (BCVA)
Procedure: (§1) The tolerability and effects of ALK-001 (gildeuretinol acetate) in Stargardt Disease (Clinical trial group 3, also known as TEASE-3) study was an open-label, multicenter, case control study designed to evaluate the efficacy and safety of gildeuretinol acetate on the progression of Stargardt disease in asymptomatic individuals. The trial was conducted at multiple sites in the United States.
To assess the safety and efficacy of gildeuretinol acetate in preventing vision loss in asymptomatic individuals, gildeuretinol acetate 14 mg capsules were administered to individuals showing early signs of retinal damage while maintaining approximately 20/20 vision and no subjective loss of vision. […] Based on the above family history and clinical observations, the asymptomatic individuals were likely to develop retinal lesions, loss of photoreceptors, drops in retinal sensitivity, loss of visual acuity, indicating the onset of symptoms, i.e. a progression to the symptomatic phase, including vision loss within two years, mirroring the progression observed in their older siblings.
Testing asymptomatic individuals in the absence of a potential intervention is, therefore, controversial. All asymptomatic Stargardt disease patients were thus administered gildeuretinol acetate. Specific dose levels were not disclosed to the patients. Disease progression was compared to the symptomatic siblings with identical genetic mutations when aged-matched who had not received gildeuretinol acetate.
(§2) Patients received gildeuretinol acetate 14 mg capsules, to be taken orally once daily. Trial visits occurred every 6 months approximately following screening and treatment start visits.
(§3) Disease progression was monitored by best-corrected visual acuity (BCVA) reported in number of Early Treatment Diabetic Retinopathy Study (ETDRS) letters, fundus autofluorescence (FAF) imaging, loss of photoreceptors (as measured by the ellipsoid zone band loss) by optical coherence tomography (OCT) and retinal sensitivity by microperimetry.
(§4) Measurements from the left and right eye for each patient were averaged for each visit to produce a single statistical unit for both eyes. For segmented linear regressions, knot times were selected so that three visits were included in the first segment.

[3] = system: asymptomatic Stargardt disease patients; assay: TEASE-3 fundus autofluorescence (FAF) imaging; details: after two to four years of treatment, three patients
Procedure: as §1
To assess the safety and efficacy of gildeuretinol acetate in preventing vision loss in asymptomatic individuals, gildeuretinol acetate 14 mg capsules were administered to individuals showing early signs of retinal damage while maintaining approximately 20/20 vision and no subjective loss of vision. […]
as §3

[4] = system: asymptomatic Stargardt disease patients; assay: TEASE-3 photoreceptor loss (ellipsoid zone band loss) by optical coherence tomography
Procedure: FIG. 5 is a graph showing retinal photoreceptor loss over time in three asymptomatic Stargardt disease patients taking gildeuretinol acetate 14 mg daily. Lines are piecewise linear regressions with a knot time of 6 months and show the mean area of retinal photoreceptor loss of both eyes. Each symbol represents the area of photoreceptor loss for one eye. To measure photoreceptor loss, the ellipsoid zone layer was evaluated on b-scans acquired on Heidelberg engineering optical coherence tomography (Heidelberg, Germany).
as §1, §2, §3, §4

SMILES: [2H]C([2H])([2H])C(/C=C/C=C(C)/C=C/C1=C(C)CCCC1(C)C)=C\COC(C)=O [gildeuretinol acetate]
- growth rate of atrophic retinal lesions (square root area) ([1]; 14 to 24 mg daily, slope 6 to 24 months, 34 patients): 0.19 mm/year
- relative slower growth rate of atrophic retinal lesions versus control ([1]; P<0.001, R^2=0.9996): 21%
- difference in growth rate of atrophic retinal lesions versus control ([1]; control 0.24 mm/year (placebo + natural history), 95% CI 0.03 to 0.07): 0.05 mm/year
- prespecified primary efficacy endpoint (mean growth rate of atrophic retinal lesions vs placebo and natural history) ([1]; in vivo): met its prespecified primary efficacy endpoint
- effect on expansion of retinal atrophic lesions / retinal degeneration ([1]; symptomatic Stargardt disease patients, once daily up to 24 months): slowed the expansion of retinal atrophic lesions; also recorded: slows retinal degeneration
- effect on vision loss ([2]; asymptomatic Stargardt disease patients, 14 mg daily, up to four years): effectively prevented vision loss and further retinal damage; also recorded: completely prevented vision loss; also recorded: arrested loss of vision and retinal pathology
- average BCVA improvement versus untreated siblings, lines of vision on the ETDRS eyechart ([2]; in vivo): four
- visual acuity (Snellen) ([2]; treated asymptomatic patients): ~ 20/20 and approximately 20/20
- BCVA ([2]; treated siblings, 14 mg daily, 2-4 years): 88±4 ETDRS letters
- average BCVA improvement versus untreated age-matched siblings ([2]; untreated siblings 66±10 ETDRS letters): 22±13 letters
- disease progression / changes by FAF imaging [3]: none of the three treated Stargardt disease patients exhibited changes by FAF; also recorded: no observable disease progression; also recorded: no visible disease progression by fundus autofluorescence imaging occurred
- progression of photoreceptor loss ([4]; first six months of treatment, average of two treated patients): approximately 0.18 mm^2/year
- photoreceptor loss trend ([4]; following years of treatment): trended toward an improvement
- photoreceptor loss, third patient ([4]; full treatment period): no photoreceptors were lost
- average area of photoreceptor loss ([4]; in vivo): 0.36±0.32 mm^2
- average area of photoreceptor loss as share of the foveal area ([4]; in vivo): 20%
